Measurements from ChEMBL document CHEMBL5291721, “A preclinical secondary pharmacology resource illuminates target-adverse drug reaction associations of marketed drugs” (Nat Commun, 2023).

How the values were obtained:
[1] = molecular target: Acetylcholinesterase (Homo sapiens, UniProt P22303); format: functional
[2] = molecular target: D(3) dopamine receptor (Homo sapiens, UniProt P35462)
[3] = molecular target: Prothrombin (Homo sapiens, UniProt P00734); format: functional
[4] = molecular target: Histamine H3 receptor (Homo sapiens, UniProt Q9Y5N1)
Chain of Histamine H3 receptor (Q9Y5N1 whole entry): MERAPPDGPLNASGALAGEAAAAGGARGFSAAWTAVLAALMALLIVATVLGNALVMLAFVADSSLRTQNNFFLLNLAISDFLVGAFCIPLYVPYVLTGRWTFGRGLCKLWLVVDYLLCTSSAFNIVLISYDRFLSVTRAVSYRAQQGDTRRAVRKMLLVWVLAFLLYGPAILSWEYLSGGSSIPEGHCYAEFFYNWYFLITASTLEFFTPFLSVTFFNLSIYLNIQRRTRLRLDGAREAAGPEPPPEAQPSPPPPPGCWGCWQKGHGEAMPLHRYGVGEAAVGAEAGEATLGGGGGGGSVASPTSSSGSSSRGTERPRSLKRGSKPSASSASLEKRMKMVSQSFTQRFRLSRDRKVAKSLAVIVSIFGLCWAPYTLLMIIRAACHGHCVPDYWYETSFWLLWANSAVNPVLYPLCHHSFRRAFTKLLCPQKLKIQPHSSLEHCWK

[5] = molecular target: 5-hydroxytryptamine receptor 2B (Homo sapiens, UniProt P41595); format: functional, cell-based
Chain of 5-hydroxytryptamine receptor 2B (P41595 whole entry): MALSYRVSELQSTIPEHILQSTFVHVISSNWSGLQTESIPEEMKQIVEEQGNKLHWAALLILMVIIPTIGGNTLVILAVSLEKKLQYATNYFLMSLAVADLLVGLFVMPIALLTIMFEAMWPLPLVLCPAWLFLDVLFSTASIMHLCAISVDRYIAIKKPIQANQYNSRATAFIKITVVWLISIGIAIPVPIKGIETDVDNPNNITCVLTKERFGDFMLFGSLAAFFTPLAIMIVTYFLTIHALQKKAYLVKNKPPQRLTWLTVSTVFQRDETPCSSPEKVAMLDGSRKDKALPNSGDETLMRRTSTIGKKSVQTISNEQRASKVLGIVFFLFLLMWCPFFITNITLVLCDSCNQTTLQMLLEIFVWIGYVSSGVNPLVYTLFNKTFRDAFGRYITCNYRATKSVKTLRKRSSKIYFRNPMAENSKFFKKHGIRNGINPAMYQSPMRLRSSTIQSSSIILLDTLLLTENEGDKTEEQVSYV

[6] = molecular target: Voltage-gated inwardly rectifying potassium channel KCNH2 (Homo sapiens, UniProt Q12809); format: functional; settings: read-out: AC50
Chain of Voltage-gated inwardly rectifying potassium channel KCNH2 (Q12809 whole entry): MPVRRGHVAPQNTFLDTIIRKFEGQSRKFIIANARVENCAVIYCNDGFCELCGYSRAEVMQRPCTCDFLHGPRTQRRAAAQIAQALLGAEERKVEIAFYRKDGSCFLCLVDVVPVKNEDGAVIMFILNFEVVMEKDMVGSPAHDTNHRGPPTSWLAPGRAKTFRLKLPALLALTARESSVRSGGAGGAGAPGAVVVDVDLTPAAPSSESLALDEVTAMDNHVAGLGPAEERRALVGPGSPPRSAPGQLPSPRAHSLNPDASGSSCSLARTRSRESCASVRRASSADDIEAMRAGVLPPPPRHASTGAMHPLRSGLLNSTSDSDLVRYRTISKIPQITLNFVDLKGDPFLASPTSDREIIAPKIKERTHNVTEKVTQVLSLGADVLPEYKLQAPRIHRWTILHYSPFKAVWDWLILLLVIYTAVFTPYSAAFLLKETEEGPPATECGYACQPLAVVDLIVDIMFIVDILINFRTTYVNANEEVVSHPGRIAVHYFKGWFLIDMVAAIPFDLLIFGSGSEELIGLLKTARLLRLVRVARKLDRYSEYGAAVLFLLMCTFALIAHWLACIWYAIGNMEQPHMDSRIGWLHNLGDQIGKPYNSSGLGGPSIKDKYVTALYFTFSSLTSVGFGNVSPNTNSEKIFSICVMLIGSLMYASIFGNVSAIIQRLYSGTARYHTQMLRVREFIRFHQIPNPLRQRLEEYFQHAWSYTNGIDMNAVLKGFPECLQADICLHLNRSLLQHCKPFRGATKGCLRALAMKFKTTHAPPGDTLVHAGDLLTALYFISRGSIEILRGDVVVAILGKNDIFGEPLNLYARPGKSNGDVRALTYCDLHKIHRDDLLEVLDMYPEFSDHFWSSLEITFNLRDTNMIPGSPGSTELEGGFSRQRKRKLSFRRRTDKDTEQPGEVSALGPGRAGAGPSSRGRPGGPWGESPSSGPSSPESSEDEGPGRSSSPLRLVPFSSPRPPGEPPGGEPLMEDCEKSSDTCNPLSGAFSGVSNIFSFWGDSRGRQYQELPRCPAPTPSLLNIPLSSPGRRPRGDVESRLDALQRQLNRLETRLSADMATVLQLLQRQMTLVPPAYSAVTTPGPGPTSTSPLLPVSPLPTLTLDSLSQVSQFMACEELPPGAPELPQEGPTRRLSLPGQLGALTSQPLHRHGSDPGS

[7] = molecular target: Vascular endothelial growth factor receptor 2 (Homo sapiens, UniProt P35968); format: functional
[8] = molecular target: T1, Amine oxidase [flavin-containing] A (Homo sapiens, UniProt P21397); format: functional
T1 sequence (P21397 whole entry): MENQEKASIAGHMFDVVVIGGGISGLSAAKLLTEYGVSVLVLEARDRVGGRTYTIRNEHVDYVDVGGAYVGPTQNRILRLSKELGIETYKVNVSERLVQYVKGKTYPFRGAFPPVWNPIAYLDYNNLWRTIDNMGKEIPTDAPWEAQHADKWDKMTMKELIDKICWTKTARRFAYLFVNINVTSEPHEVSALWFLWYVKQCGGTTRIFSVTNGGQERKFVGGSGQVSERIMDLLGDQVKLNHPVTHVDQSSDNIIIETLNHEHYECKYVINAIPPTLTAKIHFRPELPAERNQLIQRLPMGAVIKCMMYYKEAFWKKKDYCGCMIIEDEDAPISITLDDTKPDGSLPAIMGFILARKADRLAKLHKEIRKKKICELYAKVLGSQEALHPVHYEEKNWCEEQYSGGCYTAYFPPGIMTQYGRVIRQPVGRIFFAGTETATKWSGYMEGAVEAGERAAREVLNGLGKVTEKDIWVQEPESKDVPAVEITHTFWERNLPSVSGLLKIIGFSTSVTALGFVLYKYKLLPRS

[9] = molecular target: cGMP-inhibited 3',5'-cyclic phosphodiesterase 3A (Homo sapiens, UniProt Q14432); format: functional
Chain of cGMP-inhibited 3',5'-cyclic phosphodiesterase 3A (Q14432 whole entry): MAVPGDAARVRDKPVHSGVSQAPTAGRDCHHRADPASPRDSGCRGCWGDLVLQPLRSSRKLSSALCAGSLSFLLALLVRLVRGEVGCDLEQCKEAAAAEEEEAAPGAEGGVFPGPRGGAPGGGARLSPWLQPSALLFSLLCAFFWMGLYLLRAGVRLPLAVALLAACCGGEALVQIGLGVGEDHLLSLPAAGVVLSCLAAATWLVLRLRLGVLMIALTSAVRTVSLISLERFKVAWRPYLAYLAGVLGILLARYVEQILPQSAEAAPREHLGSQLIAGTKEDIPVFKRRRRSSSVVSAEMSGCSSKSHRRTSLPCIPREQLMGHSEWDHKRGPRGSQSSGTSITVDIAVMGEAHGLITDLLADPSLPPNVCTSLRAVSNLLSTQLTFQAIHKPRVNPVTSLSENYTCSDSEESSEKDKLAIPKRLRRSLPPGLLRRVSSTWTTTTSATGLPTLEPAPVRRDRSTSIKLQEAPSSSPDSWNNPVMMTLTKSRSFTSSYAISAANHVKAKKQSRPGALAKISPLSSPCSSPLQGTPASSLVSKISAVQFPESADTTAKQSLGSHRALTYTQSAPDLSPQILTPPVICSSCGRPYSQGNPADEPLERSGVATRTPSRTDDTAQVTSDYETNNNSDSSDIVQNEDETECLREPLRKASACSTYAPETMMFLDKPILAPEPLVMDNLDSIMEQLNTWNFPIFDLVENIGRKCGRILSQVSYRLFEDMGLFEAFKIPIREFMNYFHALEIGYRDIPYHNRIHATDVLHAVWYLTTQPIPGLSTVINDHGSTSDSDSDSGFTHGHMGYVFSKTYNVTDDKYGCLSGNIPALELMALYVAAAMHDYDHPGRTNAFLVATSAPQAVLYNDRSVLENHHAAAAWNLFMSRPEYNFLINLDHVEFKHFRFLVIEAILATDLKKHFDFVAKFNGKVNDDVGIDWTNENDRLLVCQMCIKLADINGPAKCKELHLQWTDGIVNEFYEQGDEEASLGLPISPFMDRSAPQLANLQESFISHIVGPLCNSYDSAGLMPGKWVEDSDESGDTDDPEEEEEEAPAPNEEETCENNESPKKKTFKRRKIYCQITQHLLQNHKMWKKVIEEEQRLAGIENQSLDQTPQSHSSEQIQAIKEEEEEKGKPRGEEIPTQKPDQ

[10] = molecular target: T2, Prostaglandin G/H synthase 1 (Homo sapiens, UniProt P23219); format: functional
T2 sequence (P23219 whole entry): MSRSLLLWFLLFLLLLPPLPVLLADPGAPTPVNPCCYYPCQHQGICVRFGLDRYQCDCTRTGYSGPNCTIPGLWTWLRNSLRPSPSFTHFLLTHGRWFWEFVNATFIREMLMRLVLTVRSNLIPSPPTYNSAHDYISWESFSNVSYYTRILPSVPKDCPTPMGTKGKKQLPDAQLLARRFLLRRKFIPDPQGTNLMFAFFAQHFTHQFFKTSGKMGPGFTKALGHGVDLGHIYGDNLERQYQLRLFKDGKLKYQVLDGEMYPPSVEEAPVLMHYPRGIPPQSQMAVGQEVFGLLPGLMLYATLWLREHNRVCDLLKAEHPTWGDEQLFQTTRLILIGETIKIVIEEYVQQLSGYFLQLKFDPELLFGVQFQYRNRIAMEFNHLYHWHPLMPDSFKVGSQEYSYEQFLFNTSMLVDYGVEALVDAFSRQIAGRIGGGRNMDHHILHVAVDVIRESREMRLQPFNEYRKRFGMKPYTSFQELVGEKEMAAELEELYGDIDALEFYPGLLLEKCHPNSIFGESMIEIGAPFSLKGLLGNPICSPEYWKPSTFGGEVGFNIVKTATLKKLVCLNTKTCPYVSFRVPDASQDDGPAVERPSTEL

[11] = molecular target: T2, Prostaglandin G/H synthase 1; format: functional; remark: listed apart in the source
[12] = molecular target: T3, Thromboxane A2 receptor (Homo sapiens, UniProt P21731); format: functional, cell-based
T3 sequence (P21731 whole entry): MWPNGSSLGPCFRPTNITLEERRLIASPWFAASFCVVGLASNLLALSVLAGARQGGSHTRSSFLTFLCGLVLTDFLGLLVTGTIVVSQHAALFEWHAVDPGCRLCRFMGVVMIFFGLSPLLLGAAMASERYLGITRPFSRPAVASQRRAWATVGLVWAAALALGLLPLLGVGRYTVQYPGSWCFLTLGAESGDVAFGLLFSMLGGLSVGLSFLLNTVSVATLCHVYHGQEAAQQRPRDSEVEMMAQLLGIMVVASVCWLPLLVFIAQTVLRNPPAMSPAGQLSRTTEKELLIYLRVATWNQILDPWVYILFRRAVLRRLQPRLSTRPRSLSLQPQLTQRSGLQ

[13] = molecular target: T4, Progesterone receptor (Homo sapiens, UniProt P06401)
T4 sequence (P06401 whole entry): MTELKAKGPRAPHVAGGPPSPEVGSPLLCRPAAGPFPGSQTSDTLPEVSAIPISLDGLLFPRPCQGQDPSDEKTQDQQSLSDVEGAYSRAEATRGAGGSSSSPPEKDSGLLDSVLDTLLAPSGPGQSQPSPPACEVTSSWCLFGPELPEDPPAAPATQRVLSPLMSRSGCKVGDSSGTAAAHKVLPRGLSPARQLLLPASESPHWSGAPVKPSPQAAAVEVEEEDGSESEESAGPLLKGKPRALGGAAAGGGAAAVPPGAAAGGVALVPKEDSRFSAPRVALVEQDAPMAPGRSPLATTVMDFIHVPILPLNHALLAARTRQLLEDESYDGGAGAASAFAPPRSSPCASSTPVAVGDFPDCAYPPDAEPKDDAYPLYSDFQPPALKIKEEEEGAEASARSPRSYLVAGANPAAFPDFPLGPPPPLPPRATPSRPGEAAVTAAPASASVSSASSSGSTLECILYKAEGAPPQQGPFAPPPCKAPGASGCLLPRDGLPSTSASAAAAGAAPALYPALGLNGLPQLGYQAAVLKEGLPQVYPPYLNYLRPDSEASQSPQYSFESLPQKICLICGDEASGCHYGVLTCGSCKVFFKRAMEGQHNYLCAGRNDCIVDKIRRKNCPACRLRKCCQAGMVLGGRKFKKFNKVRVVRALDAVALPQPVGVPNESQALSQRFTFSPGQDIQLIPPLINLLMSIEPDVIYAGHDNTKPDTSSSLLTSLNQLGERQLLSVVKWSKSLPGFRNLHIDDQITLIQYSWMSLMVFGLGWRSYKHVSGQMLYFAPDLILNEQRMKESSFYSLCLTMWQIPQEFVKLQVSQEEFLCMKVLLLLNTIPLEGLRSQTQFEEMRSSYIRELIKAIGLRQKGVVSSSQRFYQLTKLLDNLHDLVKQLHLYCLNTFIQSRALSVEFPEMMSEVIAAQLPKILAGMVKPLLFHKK

[14] = molecular target: Sodium-dependent serotonin transporter (Homo sapiens, UniProt P31645)
Chain of Sodium-dependent serotonin transporter (P31645 whole entry): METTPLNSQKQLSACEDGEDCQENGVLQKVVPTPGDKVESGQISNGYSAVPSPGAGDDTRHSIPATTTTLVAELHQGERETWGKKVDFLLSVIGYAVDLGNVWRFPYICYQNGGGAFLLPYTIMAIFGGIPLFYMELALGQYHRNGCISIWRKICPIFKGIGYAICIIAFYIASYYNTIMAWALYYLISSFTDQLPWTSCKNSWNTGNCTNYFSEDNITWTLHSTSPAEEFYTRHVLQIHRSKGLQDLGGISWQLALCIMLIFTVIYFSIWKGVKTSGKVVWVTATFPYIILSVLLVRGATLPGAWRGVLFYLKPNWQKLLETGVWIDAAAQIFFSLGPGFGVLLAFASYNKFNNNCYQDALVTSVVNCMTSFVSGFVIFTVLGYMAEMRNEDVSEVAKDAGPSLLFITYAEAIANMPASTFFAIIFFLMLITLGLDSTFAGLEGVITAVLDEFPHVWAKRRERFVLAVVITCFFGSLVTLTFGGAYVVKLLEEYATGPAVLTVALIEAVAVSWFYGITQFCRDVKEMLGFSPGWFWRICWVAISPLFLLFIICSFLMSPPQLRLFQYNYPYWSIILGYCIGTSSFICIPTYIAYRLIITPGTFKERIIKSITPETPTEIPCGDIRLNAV
Note: assay procedure not described here.

Chain of D(3) dopamine receptor (P35462 whole entry): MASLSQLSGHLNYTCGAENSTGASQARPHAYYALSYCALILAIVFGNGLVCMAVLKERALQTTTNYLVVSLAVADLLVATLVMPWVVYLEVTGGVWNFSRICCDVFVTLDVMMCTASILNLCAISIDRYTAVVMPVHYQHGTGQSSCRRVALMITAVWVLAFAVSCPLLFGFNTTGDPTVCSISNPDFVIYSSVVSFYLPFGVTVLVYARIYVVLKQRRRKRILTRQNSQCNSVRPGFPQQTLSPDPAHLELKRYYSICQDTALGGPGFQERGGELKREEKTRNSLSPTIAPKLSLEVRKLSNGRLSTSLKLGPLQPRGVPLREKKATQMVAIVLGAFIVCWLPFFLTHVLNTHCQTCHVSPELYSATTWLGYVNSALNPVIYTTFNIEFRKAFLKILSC

| SMILES | AC50 [1] [µM] | AC50 [2] [µM] | AC50 [3] [µM] | AC50 [4] [µM] | AC50 [5] [µM] | AC50 [6] [µM] | AC50 [7] [µM] | AC50 [8] [µM] | AC50 [9] [µM] | AC50 [10] [µM] | AC50 [11] [µM] | AC50 [12] [µM] | AC50 [13] [µM] | AC50 [14] [µM] |
| --- | --- | --- | --- | --- | --- | --- | --- | --- | --- | --- | --- | --- | --- | --- |
| CCCC1O[C@@H]2C[C@H]3[C@@H]4CCC5=CC(=O)C=C[C@]5(C)[C@H]4[C@@H](O)C[C@]3(C)[C@]2(C(=O)CO)O1 (stereo partly specified) [BUDESONIDE] | > 30 | > 30 | > 30 | > 30 | > 30 | > 30 | > 30 | > 30 | > 30 | > 30 | > 30 | > 30 | – | – |
| CN(C)CC/C=C1\c2ccccc2CSc2ccccc21 [DOTHIEPIN] | – | – | – | – | – | 1.5 | – | – | – | – | – | – | – | – |
| CC[C@H]1CN2CCc3cc(OC)c(OC)cc3[C@@H]2C[C@@H]1C[C@H]1NCCc2cc(OC)c(OC)cc21 [EMETINE] | > 30 | > 30 | > 30 | > 30 | > 30 | – | – | > 30 | > 30 | > 30 | > 30 | > 30 | > 30 | – |
| O=c1[nH]c(=O)n([C@H]2C[C@H](O)[C@@H](CO)O2)cc1F [FLOXURIDINE] | > 30 | > 30 | > 30 | > 30 | > 30 | > 30 | > 30 | > 30 | > 30 | > 30 | > 30 | > 30 | > 30 | – |
| Clc1cc(Cl)c(OCC#CI)cc1Cl [HALOPROGIN] | > 30 | 1.16 | > 30 | > 30 | > 30 | 9.85 | > 30 | > 30 | > 30 | > 30 | > 30 | > 30 | > 30 | – |
| O=c1[nH]c(=O)n([C@H]2C[C@H](O)[C@@H](CO)O2)cc1I [IDOXURIDINE] | > 30 | > 30 | > 30 | > 30 | > 30 | > 30 | > 30 | > 30 | > 30 | > 30 | > 30 | > 30 | > 30 | – |
| Cc1cc(C)c(NC(=O)CN(CC(=O)O)CC(=O)O)c(C)c1Br [MEBROFENIN] | > 30 | > 30 | > 30 | > 30 | > 30 | > 30 | – | > 30 | > 30 | > 30 | > 30 | > 30 | > 30 | > 30 |
| COc1ccccc1N1CCN(CC(O)COc2cccc3ccccc23)CC1 (stereo unspecified) [NAFTOPIDIL] | 26.1 | 0.04 | > 30 | > 30 | > 30 | 0.87 | – | > 30 | > 30 | > 30 | > 30 | > 30 | > 30 | 1.43 |
| COc1cc([C@@H]2c3cc4c(cc3[C@H](O)[C@H]3COC(=O)[C@H]23)OCO4)cc(OC)c1OC [PODOFILOX] | > 30 | > 30 | > 30 | > 30 | > 30 | > 30 | > 30 | > 30 | > 30 | > 30 | > 30 | > 30 | > 30 | – |
| COc1cc2nc(N3CCN(C(=O)c4ccco4)CC3)nc(N)c2cc1OC [PRAZOSIN] | 23.7 | > 30 | > 10 | > 30 | > 30 | 3.73 | – | > 30 | > 30 | > 30 | > 30 | > 30 | > 30 | – |
| CCN1CCCC1CNC(=O)c1cc(S(N)(=O)=O)ccc1OC (stereo unspecified) [SULPIRIDE] | > 30 | – | > 30 | > 30 | > 30 | > 30 | > 30 | > 30 | > 30 | 11.7 | 15.8 | > 30 | > 30 | – |
| O=c1[nH]c(=O)n(C2CCCO2)cc1F (stereo unspecified) [TEGAFUR] | > 30 | – | > 30 | > 30 | > 30 | > 30 | > 30 | > 30 | > 30 | > 30 | > 30 | > 30 | > 30 | – |
| Nc1nc2nc[nH]c2c(=S)[nH]1 [THIOGUANINE] | > 30 | > 30 | > 30 | > 30 | > 30 | – | – | > 30 | > 30 | 0.81 | 1.32 | > 30 | > 30 | – |
| COc1cc2c3cc1Oc1cc(ccc1O)C[C@@H]1c4c(cc(OC)c(O)c4Oc4ccc(cc4)C[C@@H]3N(C)CC2)CC[N+]1(C)C [TUBOCURARINE] | > 30 | > 30 | > 30 | > 30 | > 30 | > 30 | > 30 | > 30 | > 30 | > 30 | > 30 | > 30 | > 30 | – |
| C=CCCCCCCCCC(=O)O [UNDECYLENIC ACID] | > 30 | > 30 | > 30 | > 30 | > 30 | – | – | > 30 | > 30 | > 30 | > 30 | > 30 | > 30 | > 30 |
| CC[C@]1(O)C[C@H]2CN(CCc3c([nH]c4ccccc34)[C@@](C(=O)OC)(c3cc4c(cc3OC)N(C=O)[C@H]3[C@@](O)(C(=O)OC)[C@H](OC(C)=O)[C@]5(CC)C=CCN6CC[C@]43[C@@H]65)C2)C1 [VINCRISTINE] | > 30 | > 30 | > 30 | > 30 | > 30 | – | – | > 30 | > 30 | 11.2 | 5.73 | > 30 | > 30 | – |
| CN(C)CCc1c[nH]c2ccc(C[C@H]3COC(=O)N3)cc12 [ZOLMITRIPTAN] | – | – | – | – | – | > 30 | – | – | – | – | – | – | – | – |
